Results as given in US20240109903A1, “SUBSTITUTED HETEROCYCLES FOR TREATING CANCER” (Northwestern University, priority 2022, published 2024).

What was measured:
[1] = test system: A498; assay: NCI 60 five-dose screen A498; format: cell-based; details: Homo sapiens, five-dose
[2] = test system: SF-539; assay: NCI 60 five-dose screen SF-539; format: cell-based; details: Homo sapiens, five-dose
[3] = test system: U251; assay: NCI 60 five-dose screen U251; format: cell-based; details: Homo sapiens, U-251, five-dose
[4] = test system: A549/ATCC; assay: NCI 60 five-dose screen A549/ATCC; format: cell-based; details: Homo sapiens, five-dose
[5] = test system: HOP-62; assay: NCI 60 five-dose screen HOP-62; format: cell-based; details: Homo sapiens, five-dose
[6] = test system: SNB-75; assay: NCI 60 five-dose screen SNB-75; format: cell-based; details: Homo sapiens, five-dose
[7] = test system: SK-OV-3; assay: NCI 60 five-dose screen SK-OV-3; format: cell-based; details: Homo sapiens, five-dose
[8] = test system: SK-MEL-28; assay: NCI 60 five-dose screen SK-MEL-28; format: cell-based; details: Homo sapiens, five-dose
[9] = test system: T-47D; assay: NCI 60 five-dose screen T-47D; format: cell-based; details: Homo sapiens, T47D, five-dose
[10] = test system: HT29; assay: NCI 60 five-dose screen HT29; format: cell-based; details: Homo sapiens, HT-29, five-dose
[11] = test system: M14; assay: NCI 60 five-dose screen M14; format: cell-based; details: Homo sapiens, five-dose
[12] = test system: HCC-2998; assay: NCI 60 five-dose screen HCC-2998; format: cell-based; details: Homo sapiens, five-dose
[13] = test system: SNB-19; assay: NCI 60 five-dose screen SNB-19; format: cell-based; details: Homo sapiens, five-dose
[14] = test system: SK-MEL-2; assay: NCI 60 five-dose screen SK-MEL-2; format: cell-based; details: Homo sapiens, five-dose
[15] = test system: OVCAR-3; assay: NCI 60 five-dose screen OVCAR-3; format: cell-based; details: Homo sapiens, five-dose
[16] = test system: NCI-H23; assay: NCI 60 five-dose screen NCI-H23; format: cell-based; details: Homo sapiens, five-dose
[17] = test system: HS 578T; assay: NCI 60 five-dose screen HS 578T; format: cell-based; details: Homo sapiens, five-dose
[18] = test system: MDA-MB-468; assay: NCI 60 five-dose screen MDA-MB-468; format: cell-based; details: Homo sapiens, five-dose
[19] = test system: ACHN; assay: NCI 60 five-dose screen ACHN; format: cell-based; details: Homo sapiens, five-dose
[20] = test system: UACC-62; assay: NCI 60 five-dose screen UACC-62; format: cell-based; details: Homo sapiens, five-dose
[21] = test system: OVCAR-4; assay: NCI 60 five-dose screen OVCAR-4; format: cell-based; details: Homo sapiens, five-dose
[22] = test system: COLO 205; assay: NCI 60 five-dose screen COLO 205; format: cell-based; details: Homo sapiens, five-dose
[23] = test system: MDA-MB-231/ATCC; assay: NCI 60 five-dose screen MDA-MB-231/ATCC; format: cell-based; details: Homo sapiens, five-dose
[24] = test system: SK-MEL-5; assay: NCI 60 five-dose screen SK-MEL-5; format: cell-based; details: Homo sapiens, five-dose
[25] = test system: SN12C; assay: NCI 60 five-dose screen SN12C; format: cell-based; details: Homo sapiens, five-dose
[26] = test system: SR; assay: NCI 60 five-dose screen SR; format: cell-based, human; details: five-dose
[27] = test system: SW-620; assay: NCI 60 five-dose screen SW-620; format: cell-based; details: Homo sapiens, five-dose
[28] = test system: UACC-257; assay: NCI 60 five-dose screen UACC-257; format: cell-based; details: Homo sapiens, five-dose
[29] = read-out: LC50 (the source's name) (converted)
[30] = read-out: LC50 (the source's name)

With `FC(F)(F)c1cc2c(Cl)ncnc2n1CCN1CCCCC1` [NUCC-0226679] the GI50 [1] was 100 µM, the IC50 [1] was 100 µM and the IC (TGI) [1] was 100 µM. It also gave a CC50 [1, 29] of at least 100 µM, a GI50 [2] of 17 µM and an IC50 [2] of 31.6 µM. The IC (TGI) [2] was 36.3 µM, the CC50 [2, 29] was 75.9 µM and the GI50 [3] was 14.1 µM. The IC50 [3] was 22.9 µM, the IC (TGI) [3] was 34.7 µM and the CC50 [3, 29] was 87.1 µM. For the same compound, the GI50 [4] was 79.4 µM, the IC50 [4] was 100 µM and the IC (TGI) [4] was 100 µM. The CC50 [4, 29] was at least 100 µM, the GI50 [5] was 38 µM and the IC50 [5] was 100 µM. For the same compound, the IC (TGI) [5] was 100 µM, the CC50 [5, 29] was at least 100 µM and the GI50 [6] was 10.5 µM. It also gave an IC50 [6] of 22.9 µM, an IC (TGI) [6] of 22.4 µM and a CC50 [6, 29] of 47.9 µM. For the same compound, the GI50 [7] was 52.5 µM, the IC50 [7] was 100 µM and the IC (TGI) [7] was 100 µM. The CC50 [7, 29] was at least 100 µM, the GI50 [8] was 15.8 µM and the IC50 [8] was 30.2 µM. The IC (TGI) [8] was 38 µM, the CC50 [8, 29] was 89.1 µM and the GI50 [9] was 21.9 µM. It also gave an IC50 [9] of 70.8 µM, an IC (TGI) [9] of 100 µM and a CC50 [9, 30] of at least 100 µM. For the same compound, the GI50 [10] was 20.9 µM, the IC50 [10] was 29.5 µM and the IC (TGI) [10] was 81.3 µM. It also gave a CC50 [10, 29] of at least 100 µM, a GI50 [11] of 12.9 µM and an IC50 [11] of 22.4 µM. It also gave an IC (TGI) [11] of 33.1 µM, a CC50 [11, 29] of 87.1 µM and a GI50 [12] of 4.07 µM. For the same compound, the IC50 [12] was 8.32 µM, the IC (TGI) [12] was 14.5 µM and the CC50 [12, 29] was 40.7 µM. The GI50 [13] was 15.1 µM, the IC50 [13] was 28.2 µM and the IC (TGI) [13] was 30.9 µM. It also gave a CC50 [13, 29] of 64.6 µM, a GI50 [14] of 16.6 µM and an IC50 [14] of 33.9 µM. For the same compound, the IC (TGI) [14] was 33.1 µM, the CC50 [14, 29] was 66.1 µM and the GI50 [15] was 17.8 µM. For the same compound, the IC50 [15] was 33.1 µM, the IC (TGI) [15] was 35.5 µM and the CC50 [15, 29] was 72.4 µM. For the same compound, the GI50 [16] was 13.8 µM, the IC50 [16] was 28.2 µM and the IC (TGI) [16] was 38.9 µM. It also gave a CC50 [16, 29] of at least 100 µM, a GI50 [17] of 16.6 µM and an IC50 [17] of 100 µM. For the same compound, the IC (TGI) [17] was 60.3 µM, the CC50 [17, 30] was at least 100 µM and the GI50 [18] was 3.02 µM. For the same compound, the IC50 [18] was 18.2 µM, the IC (TGI) [18] was 9.33 µM and the CC50 [18, 29] was 38.9 µM. For the same compound, the GI50 [19] was 6.46 µM, the IC50 [19] was 17 µM and the IC (TGI) [19] was 100 µM. The CC50 [19, 29] was at least 100 µM, the GI50 [20] was 12 µM and the IC50 [20] was 22.4 µM. For the same compound, the IC (TGI) [20] was 30.2 µM, the CC50 [20, 29] was 75.9 µM and the GI50 [21] was 28.2 µM. The IC50 [21] was 70.8 µM, the IC (TGI) [21] was 100 µM and the CC50 [21, 29] was at least 100 µM. The GI50 [22] was 52.5 µM, the IC50 [22] was 100 µM and the IC (TGI) [22] was 100 µM. It also gave a CC50 [22, 29] of at least 100 µM, a GI50 [23] of 5.5 µM and an IC50 [23] of 14.5 µM. The IC (TGI) [23] was 19.5 µM, the CC50 [23, 29] was 50.1 µM and the GI50 [24] was 14.8 µM. It also gave an IC50 [24] of 26.3 µM, an IC (TGI) [24] of 30.9 µM and a CC50 [24, 29] of 64.6 µM. For the same compound, the GI50 [25] was 19.5 µM, the IC50 [25] was 34.7 µM and the IC (TGI) [25] was 100 µM. For the same compound, the CC50 [25, 29] was at least 100 µM, the GI50 ([26]; Homo sapiens) was 3.31 µM and the IC50 ([26]; Homo sapiens) was 6.17 µM. The CC50 ([26]; Homo sapiens, read-out: LC50 (the source's name)) was at least 100 µM, the TGI [26] was 4.58 −log[M] and the GI50 [27] was 11.2 µM. It also gave an IC50 [27] of 15.8 µM, an IC (TGI) [27] of 28.8 µM and a CC50 [27, 29] of 74.1 µM. The GI50 [28] was 11.7 µM, the IC50 [28] was 25.1 µM and the IC (TGI) [28] was 30.2 µM. It also gave a CC50 [28, 29] of 77.6 µM.
